# Measured values: publication PMC12892976, “Alkylation-based optimization of antifungal FPPS inhibitors yields a potent, broad-spectrum lipophilic zoledronate derivative” (mBio, 2025)
# Experiments:
# [1] = system: Saccharomyces cerevisiae; test: MIC/MFC broth microdilution (CLSI); format: cell-based; conditions: Saccharomyces cerevisiae S288c
# Protocol: (§1) Antifungal susceptibility was determined by broth microdilution according to the CLSI guidelines described in M27-Ed4 ([16]). […] MFC was determined by back-plating drug-treated cultures from MIC broths onto SDA plates. The MFC was defined as the lowest concentration from which no colonies could be cultured.
# [2] = system: Candida albicans; test: MIC/MFC broth microdilution (CLSI); format: cell-based; conditions: Candida albicans SC5314
# Protocol: as §1
# [3] = system: Aspergillus niger; test: MIC broth microdilution (CLSI); format: cell-based; conditions: Aspergillus niger 111
# Protocol: (§2) Antifungal susceptibility was determined by broth microdilution according to the CLSI guidelines described in M27-Ed4 ([16]).
# [4] = system: Nannizzia gypsea; test: MIC broth microdilution (CLSI); format: cell-based; conditions: Nannizzia gypsea R-131
# Protocol: as §2
# [5] = system: Cryptococcus deuterogattii; test: checkerboard drug interaction (FICI, MICc); format: cell-based;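 note: simplified diagonal checkerboard screen pairing antifungal drugs with FPPS inhibitors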
# Protocol: (§3) Drug interactions between antifungals and FPPS inhibitors were investigated using a simplified checkerboard diagonal screening method ([45]). […] FICIs were determined according to the Loewe additivity model ([17]).
# [6] = system: Cryptococcus neoformans; test: checkerboard drug interaction (FICI, MICc); format: cell-based;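 note: antifungal plus FPPS inhibitor pairs tested against Cryptococcus neoformans by simplified diagonal checkerboard screening, FICI computed under the Loewe additivity model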
# Protocol: as §3
# [7] = system: Saccharomyces cerevisiae; test: checkerboard drug interaction (FICI, MICc); format: cell-based;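 note: simplified diagonal checkerboard screen pairing antifungals with FPPS inhibitors, FICI calculated under the Loewe additivity model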
# Protocol: as §3
# [8] = system: Candida glabrata; test: checkerboard drug interaction (FICI, MICc); format: cell-based;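 note: simplified diagonal checkerboard screen pairing antifungals with FPPS inhibitors, FICI calculated under the Loewe additivity model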
# Protocol: as §3
# [9] = system: Candida albicans; test: checkerboard drug interaction (FICI, MICc); format: cell-based;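 note: antifungal plus FPPS inhibitor combinations on Candida albicans tested by a simplified diagonal checkerboard screen, with FICI calculated under the Loewe additivity model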
# Protocol: as §3
# [10] = system: Candida tropicalis; test: checkerboard drug interaction (FICI, MICc); format: cell-based;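 note: simplified diagonal checkerboard screen of antifungal plus FPPS inhibitor combinations, with FICI computed by the Loewe additivity model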
# Protocol: as §3
# [11] = system: Aspergillus flavus; test: checkerboard drug interaction (FICI, MICc); format: cell-based;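 note: simplified diagonal checkerboard screen pairing azole antifungals with FPPS inhibitors, FICI calculated under the Loewe additivity model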
# Protocol: as §3
# [12] = system: Aspergillus fumigatus; test: checkerboard drug interaction (FICI, MICc); format: cell-based;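 note: simplified diagonal checkerboard screen pairing antifungals with FPPS inhibitors against Aspergillus fumigatus, with FICI calculated under the Loewe additivity model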
# Protocol: as §3
# [13] = system: Trichophyton rubrum; test: checkerboard drug interaction (FICI, MICc); format: cell-based;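 note: simplified diagonal checkerboard screen pairing azole antifungals with FPPS inhibitors, FICI calculated under the Loewe additivity model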
# Protocol: as §3
# [14] = system: Cryptococcus deuterogattii; test: MIC/MFC broth microdilution (CLSI); conditions: Cryptococcus deuterogattii R265;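 note: broth microdilution per CLSI M27-Ed4. MFC is the lowest concentration yielding no colonies when MIC broths are subcultured onto SDA plates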
# Protocol: as §1
# [15] = system: Cryptococcus neoformans; test: MIC/MFC broth microdilution (CLSI); conditions: Cryptococcus neoformans H99;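 note: susceptibility testing followed the CLSI M27-Ed4 broth microdilution document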
# Protocol: as §1
# [16] = system: Candida glabrata; test: MIC/MFC broth microdilution (CLSI); conditions: Candida glabrata CBS138 (ATCC 2001);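 note: broth microdilution following CLSI M27-Ed4, MFC taken as the lowest drug level yielding no growth once MIC wells were subcultured on SDA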
# Protocol: as §1
# [17] = system: Aspergillus flavus; test: MIC/MFC broth microdilution (CLSI); conditions: ATCC204304
# Protocol: as §1
# [18] = system: Aspergillus fumigatus; test: MIC/MFC broth microdilution (CLSI); conditions: ATCC204305
# Protocol: as §1
# [19] = system: Trichophyton rubrum; test: MIC/MFC broth microdilution (CLSI); conditions: Trichophyton rubrum R-218
# Protocol: as §1
Compound,MIC / MEC [1],MIC / MEC [2],MIC / MEC [3],MIC / MEC [4],antifungal MICc ([5]; in combination with 10-ZOL),antifungal MICc ([5]; in combination with ZOL),antifungal MICc ([6]; in combination with 10-ZOL),antifungal MICc ([6]; in combination with ZOL),antifungal MICc ([7]; in combination with 10-ZOL),antifungal MICc ([7]; in combination with ZOL),antifungal MICc ([8]; in combination with 10-ZOL),antifungal MICc ([8]; in combination with ZOL),antifungal MICc ([9]; in combination with 10-ZOL),antifungal MICc ([9]; in combination with ZOL),antifungal MICc ([10]; in combination with 10-ZOL),antifungal MICc ([10]; in combination with ZOL),antifungal MICc ([11]; in combination with 10-ZOL),antifungal MICc ([11]; in combination with ZOL),antifungal MICc ([12]; in combination with 10-ZOL),antifungal MICc ([12]; in combination with ZOL),further results
"Nc1nc(=O)[nH]cc1F [5FC, 5-flucytosine]",1 mg/L,0.25 mg/L,>64 mg/L,>64 mg/L,0.5,0.125,0.25,1,1,1,0.125,0.125,0.125,0.25,0.5,0.125,256,128,256,128,antifungal MICc ([13]; in combination with 10-ZOL): 32; antifungal MICc ([13]; in combination with ZOL): 128; MIC / MEC [14]: 8 mg/L; MIC / MEC [15]: 4 mg/L; MIC / MEC [16]: 0.25 mg/L; MIC / MEC [17]: >64 mg/L; MIC / MEC [18]: >64 mg/L; MIC / MEC [19]: >64 mg/L
"C[C@@H]1[C@H](O)[C@@H](C)/C=C/C=C/C=C/C=C/C=C/C=C/C=C/[C@H](O[C@@H]2O[C@H](C)[C@@H](O)[C@H](N)[C@@H]2O)C[C@@H]2O[C@](O)(C[C@@H](O)C[C@@H](O)[C@H](O)CC[C@@H](O)C[C@@H](O)CC(=O)O[C@H]1C)C[C@H](O)[C@H]2C(=O)O [AMB, amphotericin B]",0.25 mg/L,0.25 mg/L,0.13 mg/L,0.5 mg/L,0.25,0.25,0.5,0.5,0.25,0.5,0.5,0.125,0.25,0.25,0.5,1,0.5,0.25,0.125,0.25,antifungal MICc ([13]; in combination with 10-ZOL): 0.5; antifungal MICc ([13]; in combination with ZOL): 2; MIC / MEC [14]: 0.25 mg/L; MIC / MEC [15]: 0.25 mg/L; MIC / MEC [16]: 0.25 mg/L; MIC / MEC [17]: 0.5 mg/L; MIC / MEC [18]: 0.25 mg/L; MIC / MEC [19]: 1 mg/L
